In PubChem BioAssay AID330 (DTP/NCI, 2004):
Where “and” joins values, the source holds several entries; their conditions need not be identical. Equal values may be shown once. Toxic doses and inconclusive results are not listed.

Tested on: P388 leukemia ip, CD2F1 mice, survival T/C
Experiment: NCI In Vivo Anticancer Drug Screen. Data for tumor model P388 Leukemia (intraperitoneal) in CD2F1 (CDF1) mice
Conditions: endpoint: median survival time, higher = longer survival
Summary of the method: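 Mice carrying the transplanted tumor received test compound or vehicle. Survival was recorded in each group, and the value is the treated-group measurement divided by that of the vehicle-treated control group.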

[1] = dose: 12.5 mg/kg/injection, schedule: Q01DX009 (ip), vehicle: Klucel (hydroxypropylcellulose) (HPC)
[2] = dose: 50.0 mg/kg/injection, schedule: Q01DX009 (ip), vehicle: Klucel (hydroxypropylcellulose) (HPC)
[3] = dose: 100.0 mg/kg/injection, schedule: Q01DX009 (ip), vehicle: Klucel (hydroxypropylcellulose) (HPC)
[4] = dose: 60.0 mg/kg/injection, schedule: Q01DX005 (ip), vehicle: saline with Tween-80
[5] = dose: 120.0 mg/kg/injection, schedule: Q01DX005 (ip), vehicle: saline with Tween-80
[6] = dose: 240.0 mg/kg/injection, schedule: Q01DX005 (ip), vehicle: saline with Tween-80
[7] = dose: 50.0 mg/kg/injection, schedule: Q01DX005 (ip), vehicle: Klucel (hydroxypropylcellulose) (HPC)
[8] = dose: 50.0 mg/kg/injection, schedule: Q01DX005 (ip), vehicle: saline with Tween-80
[9] = dose: 100.0 mg/kg/injection, schedule: Q01DX005 (ip), vehicle: saline with Tween-80
[10] = dose: 200.0 mg/kg/injection, schedule: Q01DX005 (ip), vehicle: saline with Tween-80
[11] = dose: 50.0 mg/kg/injection, schedule: Q01DX009 (ip), vehicle: saline
[12] = dose: 100.0 mg/kg/injection, schedule: Q01DX009 (ip), vehicle: saline

Q: For `C=C1C(=O)OC2CC1C(OC(=O)/C=C/c1ccccc1)C/C(C)=C/CC/C(C)=C/CCC2(C)O` (centres undefined), which T/C [1] is on record?
A: 113 % of control

Q: And the T/C (dose: 25.0 mg/kg/injection, schedule: Q01DX009 (ip), vehicle: Klucel (hydroxypropylcellulose) (HPC))?
A: 113 % of control

Q: And the T/C [2]?
A: 118 % of control

Q: What about the T/C [3] of the same molecule?
A: 110 % of control

Q: With `CCc1cccc(CC)c1NC(=O)c1ccccc1Br` as the molecule, how does the T/C [4] read?
A: 97 % of control

Q: And the T/C [5]?
A: 96 % of control

Q: And the T/C [6]?
A: 112 % of control

Q: Which results are given for `N#Cc1ccc(OC(=O)Nc2c(Br)cc(Br)cc2Br)cc1`?
A: T/C [4]: 93 % of control; T/C [5]: 99 % of control; T/C [6]: 99 % of control

Q: Which results are given for `CC(C)(C)c1noc2c1C(=O)c1ccccc1-2`?
A: T/C (dose: 60.0 mg/kg/injection, schedule: Q01DX005 (ip), vehicle: Klucel (hydroxypropylcellulose) (HPC)): 99 % of control; T/C (dose: 120.0 mg/kg/injection, schedule: Q01DX005 (ip), vehicle: Klucel (hydroxypropylcellulose) (HPC)): 91 % of control; T/C (dose: 240.0 mg/kg/injection, schedule: Q01DX005 (ip), vehicle: Klucel (hydroxypropylcellulose) (HPC)): 96 % of control

Q: With `c1cnc2ccc3ncccc3c2c1` as the molecule, how does the T/C (dose: 12.5 mg/kg/injection, schedule: Q01DX005 (ip), vehicle: Klucel (hydroxypropylcellulose) (HPC)) read?
A: 99 % of control

Q: What about the T/C (dose: 25.0 mg/kg/injection, schedule: Q01DX005 (ip), vehicle: Klucel (hydroxypropylcellulose) (HPC)) of the same molecule?
A: 96 % of control

Q: And the T/C [7]?
A: 100 % of control and 97 % of control

Q: Which results are given for `O=C(N/N=C\c1cc([N+](=O)[O-])ccc1O)C(=O)N/N=C\c1cc([N+](=O)[O-])ccc1O`?
A: T/C [2]: 106 % of control; T/C [3]: 95 % of control; T/C (dose: 200.0 mg/kg/injection, schedule: Q01DX009 (ip), vehicle: Klucel (hydroxypropylcellulose) (HPC)): 99 % of control

Q: Which T/C (dose: 7.25 mg/kg/injection, schedule: Q01DX005 (ip), vehicle: Klucel (hydroxypropylcellulose) (HPC)) does the source give for `COc1cc2c(cc1OC)[C@H]1O[C@H](OC)c3c(ccc4c3OCO4)[C@H]1N(C)CC2` here?
A: 106 % of control

Q: And the T/C (dose: 14.5 mg/kg/injection, schedule: Q01DX005 (ip), vehicle: Klucel (hydroxypropylcellulose) (HPC))?
A: 100 % of control

Q: And the T/C (dose: 29.0 mg/kg/injection, schedule: Q01DX005 (ip), vehicle: Klucel (hydroxypropylcellulose) (HPC))?
A: 106 % of control

Q: What about the T/C (dose: 58.0 mg/kg/injection, schedule: Q01DX005 (ip), vehicle: Klucel (hydroxypropylcellulose) (HPC)) of the same molecule?
A: 96 % of control

Q: Which results are given for `c1ccc(CCc2cccc3ccccc23)nc1`?
A: T/C [8]: 98 % of control; T/C [9]: 96 % of control; T/C [10]: 100 % of control

Q: For `CCCCCCCCCC[N+]1([O-])CCOCC1`, which T/C [11] is on record?
A: 100 % of control

Q: And the T/C [12]?
A: 89 % of control

Q: How did the T/C [7] turn out when `CC1(C)C=Cc2c(cc(O)c3c(=O)c4cccnc4oc23)O1` was run?
A: 90 % of control

Q: What about the T/C (dose: 100.0 mg/kg/injection, schedule: Q01DX005 (ip), vehicle: Klucel (hydroxypropylcellulose) (HPC)) of the same molecule?
A: 102 % of control

Q: And the T/C (dose: 200.0 mg/kg/injection, schedule: Q01DX005 (ip), vehicle: Klucel (hydroxypropylcellulose) (HPC))?
A: 90 % of control

Q: How did the T/C [8] turn out when `O=C(O)CCCCCCCCC#CC#CCO` was run?
A: 101 % of control

Q: And the T/C [9]?
A: 99 % of control

Q: And the T/C [10]?
A: 95 % of control

Q: Which T/C (dose: 50.0 mg/kg/injection, schedule: Q01DX009 (ip), vehicle: saline sonified) does the source give for `CC(=O)c1cc2c(cc1C(C)C)CC[C@H]1[C@](C)(C#N)CCC[C@]21C` here?
A: 86 % of control

Q: And the T/C (dose: 100.0 mg/kg/injection, schedule: Q01DX009 (ip), vehicle: saline sonified)?
A: 90 % of control

Q: What does the source list for `NS(=O)(=O)c1ccc(N=Cc2cnc3ccccc3c2)cc1`?
A: T/C (dose: 2.5 mg/kg/injection, schedule: Q01DX009 (ip), vehicle: saline): 100 % of control; T/C (dose: 5.0 mg/kg/injection, schedule: Q01DX009 (ip), vehicle: saline): 97 % of control; T/C (dose: 10.0 mg/kg/injection, schedule: Q01DX009 (ip), vehicle: saline): 100 % of control and 91 % of control; T/C (dose: 20.0 mg/kg/injection, schedule: Q01DX009 (ip), vehicle: saline): 93 % of control

Q: `C/C(=N\NC(=S)N1CC2CCC(CC2)C1)c1ccccn1` was tested. Which T/C (dose: 1.56 mg/kg/injection, schedule: Q01DX009 (ip), vehicle: Klucel (hydroxypropylcellulose) (HPC)) did it give?
A: 101 % of control and 118 % of control

Q: And the T/C (dose: 3.12 mg/kg/injection, schedule: Q01DX009 (ip), vehicle: Klucel (hydroxypropylcellulose) (HPC))?
A: 107 % of control

Q: What about the T/C (dose: 3.13 mg/kg/injection, schedule: Q01DX009 (ip), vehicle: Klucel (hydroxypropylcellulose) (HPC)) of the same molecule?
A: 120 % of control

Q: What about the T/C (dose: 6.25 mg/kg/injection, schedule: Q01DX009 (ip), vehicle: Klucel (hydroxypropylcellulose) (HPC)) of the same molecule?
A: 115 % of control and 123 % of control

Q: What about the T/C [1] of the same molecule?
A: 115 % of control

Q: For `C=C(C)C(=O)Nc1ccc(-n2[nH]c(C)c(N=Nc3ccc(N(C)C)cc3)c2=O)cc1`, which T/C [8] is on record?
A: 98 % of control

Q: What about the T/C [9] of the same molecule?
A: 96 % of control

Q: And the T/C [10]?
A: 100 % of control

Q: With `O=S1(=O)OCCCO1` as the molecule, how does the T/C (dose: 12.5 mg/kg/injection, schedule: Q01DX005 (ip), vehicle: saline) read?
A: 109 % of control

Q: And the T/C (dose: 25.0 mg/kg/injection, schedule: Q01DX005 (ip), vehicle: saline)?
A: 98 % of control

Q: And the T/C (dose: 50.0 mg/kg/injection, schedule: Q01DX005 (ip), vehicle: saline)?
A: 124 % of control

Q: What does the source list for `COc1cccc(C=O)c1OS(=O)(=O)c1ccc(C)cc1`?
A: T/C (dose: 25.0 mg/kg/injection, schedule: Q01DX009 (ip), vehicle: other): 101 % of control; T/C (dose: 50.0 mg/kg/injection, schedule: Q01DX009 (ip), vehicle: other): 108 % of control; T/C (dose: 100.0 mg/kg/injection, schedule: Q01DX009 (ip), vehicle: other): 108 % of control

Q: For `Cc1ccc(NC(=O)C(C)C)cc1`, which T/C (dose: 100.0 mg/kg/injection, schedule: Q04DX003 (ip), vehicle: Klucel (hydroxypropylcellulose) (HPC)) is on record?
A: 100 % of control

Q: What about the T/C (dose: 200.0 mg/kg/injection, schedule: Q04DX003 (ip), vehicle: Klucel (hydroxypropylcellulose) (HPC)) of the same molecule?
A: 101 % of control

Q: What about the T/C (dose: 400.0 mg/kg/injection, schedule: Q04DX003 (ip), vehicle: Klucel (hydroxypropylcellulose) (HPC)) of the same molecule?
A: 109 % of control

Q: With `C[C@]12CC[C@H]([C@@]3(C)CC[C@H]4CC[C@]43O)[C@@H](CO)[C@@H]1CC[C@@H]2O` as the molecule, how does the T/C [4] read?
A: 104 % of control

Q: And the T/C [5]?
A: 98 % of control

Q: What about the T/C [6] of the same molecule?
A: 91 % of control

Q: Which T/C [11] does the source give for `N#CC(C#N)=Cc1ccc(N2CCCCC2)cc1` here?
A: 87 % of control

Q: What about the T/C [12] of the same molecule?
A: 88 % of control

Q: What about the T/C (dose: 200.0 mg/kg/injection, schedule: Q01DX009 (ip), vehicle: saline) of the same molecule?
A: 100 % of control

Q: How did the T/C (dose: 15.0 mg/kg/injection, schedule: Q01DX005 (ip), vehicle: Klucel + Tween-80) turn out when `CCOc1c(N=Nc2ccccc2[N+](=O)[O-])c(C)nn1C(N)=S` was run?
A: 100 % of control

Q: What about the T/C (dose: 30.0 mg/kg/injection, schedule: Q01DX005 (ip), vehicle: Klucel + Tween-80) of the same molecule?
A: 89 % of control

Q: And the T/C (dose: 60.0 mg/kg/injection, schedule: Q01DX005 (ip), vehicle: Klucel + Tween-80)?
A: 86 % of control and 90 % of control

Q: `CCC(O)CN(C)Cc1cc2c(c3ccccc13)CCCC2` (centres undefined) was tested. Which T/C [11] did it give?
A: 106 % of control

Q: What about the T/C [12] of the same molecule?
A: 108 % of control

Q: Which results are given for `O=S1CCCS(=O)C1c1ccccc1` (centres undefined)?
A: T/C [4]: 100 % of control; T/C [5]: 91 % of control; T/C [6]: 97 % of control

Q: How did the T/C (dose: 0.5 mg/kg/injection, schedule: Q04DX003 (ip), vehicle: other) turn out when `CCC1(O)CC(OC2CC(N(C)C)C(OC3CC4OC5CC(=O)C(C)OC5OC4C(C)O3)C(C)O2)c2c(cc3c(c2O)C(=O)c2c(O)ccc(O)c2C3=O)C1C(=O)OC` (centres undefined) was run?
A: 123 % of control

Q: What about the T/C (dose: 0.5 mg/kg/injection, schedule: Q04DX003 (ip), vehicle: saline with Tween-80) of the same molecule?
A: 112 % of control and 110 % of control and 118 % of control

Q: And the T/C (dose: 0.5 mg/kg/injection, schedule: Q04DX003 (ip), vehicle: water)?
A: 113 % of control

Q: And the T/C (dose: 0.64 mg/kg/injection, schedule: Q04DX003 (ip), vehicle: water)?
A: 109 % of control

Q: And the T/C (dose: 1.0 mg/kg/injection, schedule: Q04DX003 (ip), vehicle: water)?
A: 119 % of control

Q: What about the T/C (dose: 1.08 mg/kg/injection, schedule: Q04DX003 (ip), vehicle: water) of the same molecule?
A: 115 % of control

Q: What about the T/C (dose: 1.8 mg/kg/injection, schedule: Q04DX003 (ip), vehicle: water) of the same molecule?
A: 118 % of control

Q: What about the T/C (dose: 1.94 mg/kg/injection, schedule: Q04DX003 (ip), vehicle: water) of the same molecule?
A: 118 % of control

Q: What about the T/C (dose: 2.0 mg/kg/injection, schedule: Q04DX003 (ip), vehicle: saline with Tween-80) of the same molecule?
A: 170 % of control

Q: And the T/C (dose: 3.24 mg/kg/injection, schedule: Q04DX003 (ip), vehicle: water)?
A: 124 % of control

Q: And the T/C (dose: 5.0 mg/kg/injection, schedule: Q04DX003 (ip), vehicle: water)?
A: 114 % of control

Q: Which T/C (dose: 50.0 mg/kg/injection, schedule: Q01DX009 (ip), vehicle: saline with Tween-80) does the source give for `COc1ccc(C=C2C(=O)N(C)C(=O)N(C)C2=O)cc1` here?
A: 112 % of control

Q: And the T/C (dose: 100.0 mg/kg/injection, schedule: Q01DX009 (ip), vehicle: saline with Tween-80)?
A: 118 % of control
